According to patent publication US20210300940A1 (Merck Patent GmbH, priority 2018, published 2021):
pIC50: −log10 of the molar value.

Columns and labels:
TLR7 = target: T1, TLR7 (Homo sapiens, UniProt Q9NYK1); experiment: HEK/293 TLR7 Cell Assay; format: cell-based; settings: TLR7/NFKb HEK cells, R848 agonist 10 uM final concentration, Steady-Glo readout; read-out: TLR7 potency
T1 construct: expressed in transfected cells; host or cells: HEK/293 cells carrying TLR7 and an NF-kB luciferase reporter
T1 sequence (Q9NYK1 27-1049): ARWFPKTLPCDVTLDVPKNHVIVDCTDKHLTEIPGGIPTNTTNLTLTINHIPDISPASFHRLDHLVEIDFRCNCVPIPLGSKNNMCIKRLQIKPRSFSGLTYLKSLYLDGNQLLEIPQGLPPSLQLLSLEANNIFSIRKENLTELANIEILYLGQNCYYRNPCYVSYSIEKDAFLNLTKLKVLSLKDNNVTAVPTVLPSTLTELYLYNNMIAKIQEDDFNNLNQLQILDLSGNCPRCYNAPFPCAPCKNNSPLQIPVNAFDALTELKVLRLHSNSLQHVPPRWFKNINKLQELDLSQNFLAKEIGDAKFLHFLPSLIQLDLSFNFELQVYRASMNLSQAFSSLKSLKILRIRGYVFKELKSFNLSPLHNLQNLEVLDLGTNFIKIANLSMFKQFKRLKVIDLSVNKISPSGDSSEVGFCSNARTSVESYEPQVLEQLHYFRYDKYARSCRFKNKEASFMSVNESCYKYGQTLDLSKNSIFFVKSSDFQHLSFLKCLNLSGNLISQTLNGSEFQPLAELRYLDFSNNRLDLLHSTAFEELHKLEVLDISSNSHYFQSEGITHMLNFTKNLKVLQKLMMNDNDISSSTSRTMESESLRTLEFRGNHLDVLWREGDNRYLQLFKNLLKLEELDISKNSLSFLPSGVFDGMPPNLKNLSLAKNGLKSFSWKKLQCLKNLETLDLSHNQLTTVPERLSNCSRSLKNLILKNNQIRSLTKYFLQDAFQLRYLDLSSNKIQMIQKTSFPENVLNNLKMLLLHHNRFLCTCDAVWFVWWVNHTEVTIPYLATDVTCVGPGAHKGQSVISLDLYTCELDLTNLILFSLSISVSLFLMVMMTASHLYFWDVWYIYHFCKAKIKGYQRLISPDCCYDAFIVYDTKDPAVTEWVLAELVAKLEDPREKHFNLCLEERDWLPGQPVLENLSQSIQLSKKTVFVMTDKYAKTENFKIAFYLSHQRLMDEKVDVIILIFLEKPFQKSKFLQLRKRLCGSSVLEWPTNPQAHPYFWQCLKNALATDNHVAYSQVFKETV
In short: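 Compounds added to HEK cells expressing TLR7 with an NFκB reporter 30 min ahead of 10 uM R848 challenge; luciferase signal (Steady-Glo) measured after 5 h, cells having been seeded 24 h earlier at 5000 per well.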

TLR8 = target: T2, TLR8 (Homo sapiens, UniProt Q9NR97); experiment: HEK/293 TLR8 Cell Assay; format: cell-based; settings: HEK cells, R848 agonist 30 uM final concentration, Steady-Glo readout; read-out: TLR8 potency
T2 construct: expressed in transfected cells; host or cells: HEK/293 reporter cells (NF-kB luciferase)
T2 sequence (Q9NR97 27-1041): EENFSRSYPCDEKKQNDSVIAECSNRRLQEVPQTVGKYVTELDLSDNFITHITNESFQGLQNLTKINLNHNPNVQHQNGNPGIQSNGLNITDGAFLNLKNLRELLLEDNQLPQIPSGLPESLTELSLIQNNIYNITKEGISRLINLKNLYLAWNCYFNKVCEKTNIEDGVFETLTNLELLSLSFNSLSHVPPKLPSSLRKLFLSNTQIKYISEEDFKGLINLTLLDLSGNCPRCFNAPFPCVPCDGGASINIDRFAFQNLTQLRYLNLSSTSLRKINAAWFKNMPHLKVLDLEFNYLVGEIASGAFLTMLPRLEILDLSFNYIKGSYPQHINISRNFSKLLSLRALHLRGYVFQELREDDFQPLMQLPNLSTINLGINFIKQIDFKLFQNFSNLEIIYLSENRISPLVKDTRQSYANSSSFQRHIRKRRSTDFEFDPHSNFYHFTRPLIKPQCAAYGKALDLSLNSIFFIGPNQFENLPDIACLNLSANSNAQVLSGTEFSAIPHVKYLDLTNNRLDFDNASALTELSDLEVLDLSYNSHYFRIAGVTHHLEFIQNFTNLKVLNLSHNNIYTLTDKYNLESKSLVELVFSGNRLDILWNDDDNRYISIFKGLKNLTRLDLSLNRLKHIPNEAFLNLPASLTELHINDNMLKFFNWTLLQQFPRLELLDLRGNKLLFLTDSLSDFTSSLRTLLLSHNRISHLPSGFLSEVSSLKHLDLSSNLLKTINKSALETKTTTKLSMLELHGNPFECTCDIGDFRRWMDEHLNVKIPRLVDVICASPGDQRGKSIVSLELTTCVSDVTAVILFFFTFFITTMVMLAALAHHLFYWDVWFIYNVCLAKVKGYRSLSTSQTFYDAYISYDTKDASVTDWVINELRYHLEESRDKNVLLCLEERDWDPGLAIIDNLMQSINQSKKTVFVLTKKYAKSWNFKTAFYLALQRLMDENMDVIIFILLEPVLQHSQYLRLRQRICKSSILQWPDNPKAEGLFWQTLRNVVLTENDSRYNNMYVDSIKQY

Compound | pIC50 (TLR7) | pIC50 (TLR8)
C[C@@H]1CN(c2cnc(C#N)c3ncccc23)C[C@H](CNCC2(F)CCOCC2)O1 [Example 377, 5-((2S,6R)-2-{[(4-Fluoro-tetrahydro-pyran-4-ylmethyl)-amino]-methyl}-6-methyl-morpholin-4-yl)-[1,7]naphthyridine-8-carbonitrile] | < 6.82 | < 6.82
C[C@@H]1CN(c2cnc(C#N)c3ncccc23)C[C@H](CNCC2(O)COC2)O1 [Example 378, 5-((2S,6R)-2-{[(3-Hydroxy-oxetan-3-ylmethyl)-amino]-methyl}-6-methyl-morpholin-4-yl)-[1,7]naphthyridine-8-carbonitrile] | < 6.82 | < 6.82
C[C@@H]1CN(c2cnc(C#N)c3ncccc23)C[C@H](CN2CCNC(=O)C2)O1 [Example 379, 5-[(2R,6S)-2-Methyl-6-(3-oxo-piperazin-1-ylmethyl)-morpholin-4-yl]-naphthyridine-8-carbonitrile] | < 6.82 | < 6.82
CC(=O)NCCNC[C@H]1CN(c2cnc(C#N)c3ncccc23)C[C@@H](C)O1 [Example 380, N-(2-{[(2S,6R)-4-(8-Cyano-[1,7]naphthyridin-5-yl)-6-methyl-morpholin-2-ylmethyl]-amino}-ethyl)-acetamide] | < 6.82 | < 6.82
CC(=O)N1CCC(NC[C@H]2CN(c3cnc(C#N)c4ncccc34)C[C@@H](C)O2)CC1 [Example 381, 5-{(2S,6R)-2-[(1-Acetyl-piperidin-4-ylamino)-methyl]-6-methyl-morpholin-4-yl}-[1,7]naphthyridine-8-carbonitrile] | < 6.82 | < 6.82
C[C@@H]1CN(c2cnc(C#N)c3ncccc23)C[C@H](CN2CCN(S(N)(=O)=O)CC2)O1 [Example 382, 4-{[(2S,6R)-4-(8-cyano-1,7-naphthyridin-5-yl)-6-methylmorpholin-2-yl]methyl}piperazine-1-sulfonamide] | < 6.82 | < 6.82
C[C@@H]1CN(c2cnc(C(F)(F)F)c3ncccc23)C[C@H](CO)O1 [Example 383, [(2R,6R)-6-Methyl-4-(8-trifluoromethyl-[1,7]naphthyridin-5-yl)-morpholin-2-yl]-methanol] | < 6.82 | < 6.82
C[C@@H]1CN(c2cnc(C(F)(F)F)c3ncccc23)C[C@H](CNC2CCS(=O)(=O)CC2)O1 [Example 384, (1,1-Dioxo-hexahydro-1lambda6-thiopyran-4-yl)-[(2S,6R)-6-methyl-4-(8-trifluoromethyl-[1,7]naphthyridin-5-yl)-morpholin-2-ylmethyl]-amine] | > 7.12 | < 6.82
C[C@@H]1CN(c2cnc(C(F)(F)F)c3ncccc23)C[C@H](CN2CCN(C)CC2)O1 [Example 387, 5-[(2R,6S)-2-Methyl-6-(4-methyl-piperazin-1-ylmethyl)-morpholin-4-yl]-8-trifluoromethyl-[1,7]naphthyridine] | 6.82 to 7.12 | 6.82 to 7.12
N#Cc1ccc(N2C[C@H](N)C[C@H](C(F)(F)F)C2)c2ccc(=O)[nH]c12 [Example 388, 5-((3R,5S)-3-Amino-5-trifluoromethyl-piperidin-1-yl)-2-oxo-1,2-dihydro-quinoline-8-carbonitrile] | < 6.82 | < 6.82
(2S)—N-[(3R,5S)-5-amino-1-(8-cyanoquinazolin-5-yl)piperidin-3-yl]-2-(4-methylpiperazin-1-yl)propanamide [Example 97] | > 7.12 | < 6.82
(2S,6S)-4-(8-cyanoquinolin-5-yl)-N-[(4-fluoro-1-methylpiperidin-4-yl)methyl]-6-(trifluoromethyl)morpholine-2-carboxamide [Example 316] | 6.82 to 7.12 | < 6.82
